According to patent US11186554B2, “Non-fused tricyclic compounds” (VIVACE THERAPEUTICS, INC., priority 2017, dated 2021):

The compounds below were run on firefly luciferase activity (assay: Dual-Glo firefly/renilla luciferase reporter assay in cells). Settings: 24 h, read-out: Firefly Luciferase IC50 (μM).
Assay type: cell-based

SMILES | IC50 [µM]
OCCn1nnc(-c2ccccc2Nc2ccc(SC(F)F)cc2)n1 [Compound 31, 2-[5-[2-[4-(difluoromethylsulfanyl)anilino]phenyl]tetrazol-2-yl]ethanol] | 0.1 to 1
O=C(Cn1nnc(-c2ccccc2Nc2ccc(C(F)(F)F)cc2)n1)C1CC1 [Compound 121, 1-cyclopropyl-2-[5-[2-[4-(trifluoromethyl)anilino]phenyl]tetrazol-2-yl]ethanone] | 0.1 to 1

Same assay, conditions: 24 hrs compound treatment, starting from 3 uM, 1:3 dilution, 10 points; read-out: Firefly Luciferase IC50

SMILES | IC50 [µM]
CC(N)Cn1nnc(-c2ccccc2Nc2ccc(C(F)(F)F)cc2)n1 (stereo not shown) [Compound 229, 2-(2-(2-aminopropyl)-2H-tetrazol-5-yl)-N-(4-(trifluoromethyl)phenyl)aniline] | 0.1 to 1
CCOC(=O)Cn1ncc(-c2ccccc2Nc2cccc(C(F)(F)F)c2)c1C [Compound 90, ethyl 2-(5-methyl-4-(2-((3-(trifluoromethyl)phenyl)amino)phenyl)-1H-pyrazol-1-yl)acetate] | 1 to 5
O=C1N[C@H](Cn2nnc(-c3ccccc3Nc3ccc(C(F)(F)F)cc3)n2)CO1 [Compound 158, (R)-4-((5-(2-((4-(trifluoromethyl)phenyl)amino)phenyl)-2H-tetrazol-2-yl)methyl)oxazolidin-2-one] | 0.1 to 1
OCCn1nnc(-c2ccccc2Nc2ccc(F)c(F)c2)n1 [Compound 25, 2-[5-[2-(3,4-difluoroanilino)phenyl]tetrazol-2-yl]ethanol] | 0.1 to 1
CCN(CC)C(=O)Cn1nnc(-c2ccccc2Nc2ccc(C(F)(F)F)cc2)n1 [Compound 44, N,N-diethyl-2-[5-[2-[4-(trifluoromethyl)anilino]phenyl]tetrazol-2-yl]acetamide] | 1 to 5
Cn1nnc(-c2ccccc2Nc2ccc(C(F)(F)F)cc2)n1 [Compound 171, 2-(2-methyltetrazol-5-yl)-N-[4-(trifluoromethyl)phenyl]aniline] | 0.1 to 1
CC(=O)N1CCC(O)(Cn2nnc(-c3ccccc3Nc3ccc(C(F)(F)F)cc3)n2)C1 (stereo not shown) [Compound 154, 1-(3-hydroxy-3-((5-(2-((4-(trifluoromethyl)phenyl)amino)phenyl)-2H-tetrazol-2-yl)methyl)pyrrolidin-1-yl)ethanone] | 0.1 to 1

Second part, the compound after the results:

IC50 [µM] | SMILES
< 0.1 | FC(F)(F)c1ccc(Nc2ccccc2-c2nnn(C3CCOC3)n2)cc1 (stereo not shown) [Compound 119, 2-(2-(tetrahydrofuran-3-yl)-2H-tetrazol-5-yl)-N-(4-(trifluoromethyl)phenyl) Aniline]
0.1 to 1 | FC(F)(F)c1ccc(Nc2ccccc2-c2nnn(Cc3ccncc3)n2)cc1 [Compound 41, 2-[2-(4-pyridylmethyl)tetrazol-5-yl]-N-[4-(trifluoromethyl)phenyl]aniline]
< 0.1 | OC1(Cn2nnc(-c3ccccc3Nc3ccc(C(F)(F)F)cc3)n2)CCCC1 [Compound 152, 1-((5-(2-((4-(Trifluoromethyl)phenyl)amino)phenyl)-2H-tetrazol-2-yl)methyl)cyclopentanol]
0.1 to 1 | C[C@H](c1ccccc1)N1C(=O)OC[C@H]1Cn1nnc(-c2ccccc2Nc2ccc(C(F)(F)F)cc2)n1 [Compound 132, (4R)-3-[(1R)-1-phenylethyl]-4-[[5-[2-[4-(trifluoromethyl)anilino]phenyl]tetrazol-2-yl]methyl]oxazolidin-2-one]
< 0.1 | CNC(=O)Cn1nnc(-c2ccccc2Nc2ccc(C(F)(F)F)cc2)n1 [Compound 42, N-methyl-2-[5-[2-[4-(trifluoromethyl)anilino]phenyl]tetrazol-2-yl]acetamide]
< 0.1 | OC1(Cn2nnc(-c3ccccc3Nc3ccc(C(F)(F)F)cc3)n2)CCC1 [Compound 169, 1-((5-(2-((4-(Trifluoromethyl)phenyl)amino)phenyl)-2H-tetrazol-2-yl)methyl)cyclobutanol]
< 0.1 | CCOC(=O)Cn1cc(-c2ccccc2Nc2ccc(C(F)(F)F)cc2)cn1 [Compound 60, ethyl 2-(4-(2-((4-(trifluoromethyl)phenyl)amino)phenyl)-1H-pyrazol-1-yl)acetate]
